Reference: US8952157B2, “Apoptosis-inducing agents for the treatment of cancer and immune and autoimmune diseases” (AbbVie Inc., priority 2008, dated 2015)

What follows are compounds tested against GST-Bcl-2 (Homo sapiens (Human), UniProt P10415) (assay: Time Resolved-Fluorescence Resonance Energy Transfer (TR-FRET) Bcl-2 binding assay). Settings: GST-Bcl-2 1 nM, F-Bak peptide probe 100 nM, Tb-anti-GST antibody 1 nM; Ki by Wang's equation.
Chain of GST-Bcl-2 (P10415 whole entry): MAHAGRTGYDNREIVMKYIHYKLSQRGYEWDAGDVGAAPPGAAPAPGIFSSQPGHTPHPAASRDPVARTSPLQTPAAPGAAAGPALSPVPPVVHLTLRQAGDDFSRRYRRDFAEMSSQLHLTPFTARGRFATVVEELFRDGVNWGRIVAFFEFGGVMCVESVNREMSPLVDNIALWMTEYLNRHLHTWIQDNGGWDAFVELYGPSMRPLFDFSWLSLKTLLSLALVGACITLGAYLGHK
Method in brief: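 Competition TR-FRET: GST-Bcl-2 with fluorescent Bak peptide probe and Tb-anti-GST antibody, compounds serially diluted from 50 μM (2× start, 10% DMSO).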
In the case of CC1(C)CCC(CN2CCN(c3ccc(C(=O)NS(=O)(=O)c4ccc(NCC5CCOCC5)c([N+](=O)[O-])c4)c(Oc4cncc(N)c4)c3)CC2)=C(c2ccc(Cl)cc2)C1 [Example 279, 2-[(5-aminopyridin-3-yl)oxy]-4-(4-{[2-(4-chlorophenyl)-4,4-dimethylcyclohex-1-en-1-yl]methyl}piperazin-1-yl)-N-({3-nitro-4-[(tetrahydro-2H-pyran-4-ylmethyl)amino]phenyl}sulfonyl)benzamide], the Ki is reported as 1.7 nM. O=C(NS(=O)(=O)c1ccc(NCC2CCOCC2)c([N+](=O)[O-])c1)c1ccc(N2CCN(Cc3ccccc3-c3ccc(Cl)cc3)CC2)cc1Oc1ccc2[nH]cc(CCC(=O)N3CCOCC3)c2c1 [Example 73, 4-(4-((4′-chloro-1,1′-biphenyl-2-yl)methyl)piperazin-1-yl)-2-((3-(3-morpholin-4-yl-3-oxopropyl)-1H-indol-5-yl)oxy)-N-((3-nitro-4-((tetrahydro-2H-pyran-4-ylmethyl)amino)phenyl)sulfonyl)benzamide] gave a Ki of 32.3 nM. In the case of CC1(C)CCC(CN2CCN(c3ccc(C(=O)NS(=O)(=O)c4ccc(NC(CO)C5CCOCC5)c([N+](=O)[O-])c4)c(Oc4cc5cc[nH]c5cc4F)c3)CC2)=C(c2ccc(Cl)cc2)C1 (centres unmarked) [Example 240, 4-(4-{[2-(4-chlorophenyl)-4,4-dimethylcyclohex-1-en-1-yl]methyl}piperazin-1-yl)-2-[(6-fluoro-1H-indol-5-yl)oxy]-N-({4-[(2-hydroxy-1-tetrahydro-2H-pyran-4-ylethyl)amino]-3-nitrophenyl}sulfonyl)benzamide], the Ki is reported as 0.912 nM. CN(C)CCCNc1ccc(S(=O)(=O)NC(=O)c2ccc(N3CCN(CC4=C(c5ccc(Cl)cc5)CC(C)(C)CC4)CC3)cc2Oc2ccc(F)cc2)cc1[N+](=O)[O-] [Example 139, 4-(4-{[2-(4-chlorophenyl)-4,4-dimethylcyclohex-1-en-1-yl]methyl}piperazin-1-yl)-N-[(4-{[3-(dimethylamino)propyl]amino}-3-nitrophenyl)sulfonyl]-2-(4-fluorophenoxy)benzamide] gave a Ki of 0.125 nM. For CC1(C)CCC(CN2CCN(c3ccc(C(=O)NS(=O)(=O)c4ccc(OCC5(F)CCOCC5)c(Cl)c4)c(Oc4cnc(N)c(Cl)c4)c3)CC2)=C(c2ccc(Cl)cc2)C1 [Example 404, 2-[(6-amino-5-chloropyridin-3-yl)oxy]-N-({3-chloro-4-[(4-fluorotetrahydro-2H-pyran-4-yl)methoxy]phenyl}sulfonyl)-4-(4-{[2-(4-chlorophenyl)-4,4-dimethylcyclohex-1-en-1-yl]methyl}piperazin-1-yl)benzamide], the Ki was 0.069 nM. For Cn1c(=O)[nH]c2cccc(Oc3cc(N4CCN(CC5=C(c6ccc(Cl)cc6)CC(C)(C)CC5)CC4)ccc3C(=O)NS(=O)(=O)c3ccc(NCC4CCOCC4)c([N+](=O)[O-])c3)c21 [Example 368, 4-(4-{[2-(4-chlorophenyl)-4,4-dimethylcyclohex-1-en-1-yl]methyl}piperazin-1-yl)-2-[(3-methyl-2-oxo-2,3-dihydro-1H-benzimidazol-4-yl)oxy]-N-({3-nitro-4-[(tetrahydro-2H-pyran-4-ylmethyl)amino]phenyl}sulfonyl)benzamide], the Ki was < 0.01 nM. CN1CCC(Nc2ccc(S(=O)(=O)NC(=O)c3ccc(N4CCN(CC5=C(c6ccc(Cl)cc6)CC(C)(C)CC5)CC4)cc3Oc3ccc4nc(N)sc4c3)cc2[N+](=O)[O-])CC1 [Example 229, 2-[(2-amino-1,3-benzothiazol-6-yl)oxy]-4-(4-{[2-(4-chlorophenyl)-4,4-dimethylcyclohex-1-en-1-yl]methyl}piperazin-1-yl)-N-({4-[(1-methylpiperidin-4-yl)amino]-3-nitrophenyl}sulfonyl)benzamide] was tested, and the Ki was 1.08 nM. For CN(C)CCCNc1ccc(S(=O)(=O)NC(=O)c2ccc(N3CCN(Cc4ccccc4-c4ccc(Cl)cc4)CC3)cc2Oc2cccc3c2CCC(=O)N3)cc1[N+](=O)[O-] [Example 58, 4-(4-((4′-chloro-1,1′-biphenyl-2-yl)methyl)piperazin-1-yl)-N-((4-((3-(dimethylamino)propyl)amino)-3-nitrophenyl)sulfonyl)-2-((2-oxo-1,2,3,4-tetrahydroquinolin-5-yl)oxy)benzamide], the Ki was 0.155 nM. With CN1CCC(Nc2ccc(S(=O)(=O)NC(=O)c3ccc(N4CCN(CC5=C(c6ccc(Cl)cc6)CC(C)(C)CC5)CC4)cc3Oc3cccc(-c4ccc[nH]4)c3)cc2[N+](=O)[O-])CC1 [Example 197, 4-(4-{[2-(4-chlorophenyl)-4,4-dimethylcyclohex-1-en-1-yl]methyl}piperazin-1-yl)-N-({4-[(1-methylpiperidin-4-yl)amino]-3-nitrophenyl}sulfonyl)-2-[3-(1H-pyrrol-2-yl)phenoxy]benzamide] the Ki was 0.22 nM. CC1(C)CCC(CN2CCN(c3ccc(C(=O)NS(=O)(=O)c4ccc(NCC5CCOCC5)c([N+](=O)[O-])c4)c(Oc4ccc(NCC(F)F)nc4)c3)CC2)=C(c2ccc(Cl)cc2)C1 [Example 376, 4-(4-{[2-(4-chlorophenyl)-4,4-dimethylcyclohex-1-en-1-yl]methyl}piperazin-1-yl)-2-({6-[(2,2-difluoroethyl)amino]pyridin-3-yl}oxy)-N-({3-nitro-4-[(tetrahydro-2H-pyran-4-ylmethyl)amino]phenyl}sulfonyl)benzamide] gave a Ki of 57.7 nM. With O=C(NS(=O)(=O)c1ccc(NCC2CCOCC2)c([N+](=O)[O-])c1)c1ccc(N2CCN(Cc3ccccc3-c3ccc(Cl)cc3)CC2)cc1Oc1cccc(-c2ccccc2)c1 [Example 86, 2-(1,1′-biphenyl-3-yloxy)-4-(4-((4′-chloro-1,1′-biphenyl-2-yl)methyl)piperazin-1-yl)-N-((3-nitro-4-((tetrahydro-2H-pyran-4-ylmethyl)amino)phenyl)sulfonyl)benzamide] the Ki was 5.26 nM. With CC1(C)CCC(CN2CCN(c3ccc(C(=O)NS(=O)(=O)c4ccc(NC5CCN(C6CC6)CC5)c([N+](=O)[O-])c4)c(Oc4cc5cc[nH]c5cc4F)c3)CC2)=C(c2ccc(Cl)cc2)C1 [Example 327, 4-(4-{[2-(4-chlorophenyl)-4,4-dimethylcyclohex-1-en-1-yl]methyl}piperazin-1-yl)-N-({4-[(1-cyclopropylpiperidin-4-yl)amino]-3-nitrophenyl}sulfonyl)-2-[(6-fluoro-1H-indol-5-yl)oxy]benzamide] the Ki was 0.212 nM. O=C(NS(=O)(=O)c1ccc(NCC2CCOCC2)c([N+](=O)[O-])c1)c1ccc(N2CCN(Cc3ccccc3-c3ccc(Cl)cc3)CC2)cc1Oc1ccc(Cl)cc1 [Example 7, 4-(4-((4′-chloro-1,1′-biphenyl-2-yl)methyl)piperazin-1-yl)-2-(4-chlorophenoxy)-N-((3-nitro-4-((tetrahydro-2H-pyran-4-ylmethyl)amino)phenyl)sulfonyl)benzamide] was tested, and the Ki was 2.59 nM. For O=C(NS(=O)(=O)c1ccc(NCC2CCOCC2)c([N+](=O)[O-])c1)c1ccc(N2CCN(Cc3ccccc3-c3ccc(Cl)cc3)CC2)cc1Oc1ccccc1-c1ccccc1 [Example 84, 2-(1,1′-biphenyl-2-yloxy)-4-(4-((4′-chloro-1,1′-biphenyl-2-yl)methyl)piperazin-1-yl)-N-((3-nitro-4-((tetrahydro-2H-pyran-4-ylmethyl)amino)phenyl)sulfonyl)benzamide], the Ki was 13.7 nM. CN(C)CCCNc1ccc(S(=O)(=O)NC(=O)c2ccc(N3CCN(Cc4ccccc4-c4ccc(Cl)cc4)CC3)cc2Oc2cccc(CO)c2)cc1[N+](=O)[O-] [Example 107, 4-(4-((4′-chloro-1,1′-biphenyl-2-yl)methyl)piperazin-1-yl)-N-((4-((3-(dimethylamino)propyl)amino)-3-nitrophenyl)sulfonyl)-2-(3-(hydroxymethyl)phenoxy)benzamide] was tested, and the Ki was 0.331 nM. In the case of Cc1c[nH]c2cccc(Oc3cc(N4CCN(CC5=C(c6ccc(Cl)cc6)CC(C)(C)CC5)CC4)ccc3C(=O)NS(=O)(=O)c3ccc(NCCCN4CCOCC4)c([N+](=O)[O-])c3)c12 [Example 63, 4-(4-((2-(4-chlorophenyl)-4,4-dimethylcyclohex-1-en-1-yl)methyl)piperazin-1-yl)-2-((3-methyl-1H-indol-4-yl)oxy)-N-((4-((3-morpholin-4-ylpropyl)amino)-3-nitrophenyl)sulfonyl)benzamide], the Ki is reported as 0.438 nM. CN1CCC(Nc2ccc(S(=O)(=O)NC(=O)c3ccc(N4CCN(CC5=C(c6ccc(Cl)cc6)CC(C)(C)OC5)CC4)cc3Oc3cccc(Cl)c3)cc2[N+](=O)[O-])CC1 [Example 144, 2-(3-chlorophenoxy)-4-(4-{[4-(4-chlorophenyl)-6,6-dimethyl-5,6-dihydro-2H-pyran-3-yl]methyl}piperazin-1-yl)-N-({4-[(1-methylpiperidin-4-yl)amino]-3-nitrophenyl}sulfonyl)benzamide] showed a Ki of 0.028 nM. In the case of CCN(Cc1ccc(Oc2cc(N3CCN(Cc4ccccc4-c4ccc(Cl)cc4)CC3)ccc2C(=O)NS(=O)(=O)c2ccc(NCC3CCOCC3)c([N+](=O)[O-])c2)cc1)C(=O)OC(C)(C)C [Example 78, tert-butyl 4-(5-(4-((4′-chloro-1,1′-biphenyl-2-yl)methyl)piperazin-1-yl)-2-((((3-nitro-4((tetrahydro-2H-pyran-4-ylmethyl)amino)phenyl)sulfonyl)amino)carbonyl)phenoxy)benzyl(ethyl)carbamate], the Ki is reported as > 1200 nM. CC(C)c1cc(Oc2cc(N3CCN(CC4=C(c5ccc(Cl)cc5)CC(C)(C)CC4)CC3)ccc2C(=O)NS(=O)(=O)c2ccc(NCC3CCOCC3)c([N+](=O)[O-])c2)cnc1N [Example 365, 2-[(6-amino-5-isopropylpyridin-3-yl)oxy]-4-(4-{[2-(4-chlorophenyl)-4,4-dimethylcyclohex-1-en-1-yl]methyl}piperazin-1-yl)-N-({3-nitro-4-[(tetrahydro-2H-pyran-4-ylmethyl)amino]phenyl}sulfonyl)benzamide] showed a Ki of 4.55 nM. CC1(C)CCC(CN2CCN(c3ccc(C(=O)NS(=O)(=O)c4ccc(NC5CCN(CCO)CC5)c([N+](=O)[O-])c4)c(Oc4cccc(Cl)c4)c3)CC2)=C(c2ccc(Cl)cc2)C1 [Example 162, 2-(3-chlorophenoxy)-4-(4-{[2-(4-chlorophenyl)-4,4-dimethylcyclohex-1-en-1-yl]methyl}piperazin-1-yl)-N-[(4-{[1-(2-hydroxyethyl)piperidin-4-yl]amino}-3-nitrophenyl)sulfonyl]benzamide] showed a Ki of 0.048 nM.
